Laboratory results reported in patent US20190010461A1, “HUMAN PLURIPOTENT STEM CELL-BASED SCREENING FOR SMOOTH MUSCLE CELL DIFFERENTIATION AND DISEASE” (Wisconsin Alumni Research Foundation, priority 2017, published 2019).

Legend:
MYH11-Tom+ cells = assay: Flow cytometric analysis of MYH11-Tom+ cells in SMC differentiation; type: cell-based, human; conditions: RepSox 25 μM, day 12-24
Experimental: (§1) Data are represented as mean±standard deviation (SD). […] Scale bar=1 mm. […] Scale bar=50 μm. […] Data are represented as mean±SD. Student's t-test, *: P<0.05, n=3.
FIGS. 7A-7G show the target of RepSox. […] Cells were treated with RepSox (25 μM) or SiRNA. […] Cells were treated with RepSox (25 μM) or SiRNA. […] During the smooth muscle cells differentiation, cells were treated with or without RepSox from day 10-11. […] During the smooth muscle cells differentiation, cells were treated with RepSox for 1 or 20 hours at day 12. […] Cells were treated with RepSox and non-targeting control (NT)/SiRNA at day 10. The RNA was isolated at day 14.
Optimized smooth muscle cell differentiation—Human pluripotent stem cell cells (H1) were cultured in E8 medium on a […]™-coated plate. To achieve the best differentiation results, ES cells were split using EDTA at 1:4 ratios two days before the differentiation. The cells reached 80-90% confluency two days later. At the day of the differentiation, ES cells were dissociated by ACCUTASE™ (Invitrogen) for 3-5 min at 37 ° C. The cells were plated on a […]™-coated plate at 1:4 ratios (1×10^5 cells/cm2). […] An increased CHIR99021 concentration of 3 μM decreased cell proliferation at 36 hours but increased MYH11 expression. At 36 hours, the cells were passaged and seeded on a new […]™-coated plate (1.6×10^4 cells/cm2). The low cell density is critical for the differentiation. A cell density of 1.0-4.0×10^4 cells/cm2 for different cell lines can be tested, such that 100% cell confluence will be achieved at day 6, which gives rise to the best differentiation efficiency. The cells were treated with E6T medium (E8 medium minus FGF2 but still containing 1.7 ng/ml TGF-β1) for 18 hours to induce the transient and medium level expression of MEOX1. E5F medium (E8 medium minus insulin and TGF-β1, but still containing 100 ng/ml FGF2) was used to suppress MEOX1 expression for another 5 days (days 3-8). Next, the cells were treated with E6FVR medium (E6 medium with 100 ng/ml FGF2, 50 ng/ml VEGFA, and 5 μM RESV, a NOTCH agonist) to induce SMC progenitors from day 8-12. E6R (E6 medium+5 μM RESV) medium supplemented with RepSox (25 μM), was then used to further mature SMCs from day 12 to 24. Cells were split (1×10^5 cells/cm2) at day 16 and further differentiated until day 24. The cells can be cryopreserved at day 16 or day 24. For P-SMCs, T-SMCs, and PT-SMCs, RepSox was replaced by PDGF-BB (10 ng/ml), TGF-β1 (1.7 ng/ml), or combination of PDGF-BB and TGF-β1, respectively, from day 12 to 24. From day 0-4: medium was changed every day. From day 2-24: medium was changed every other day. For day 1 and day 8-24, 1.5×volumes of medium, compared to the normal volume used in the well, were used. […]

intimal hyperplasia = system: intimal hyperplasia
From the text: FIG. 5A depicts the rat balloon injury experiment. H&E staining is shown. Arrowheads indicate the intima. Scale bar=200 μm. […] Scale bar=100 Neointima is highlighted. Red arrows indicate the region with high SMA expression. Yellow arrows indicate the region with low SMA expression. […] Red arrows indicate the region with high MYH11 expression. Yellow arrows indicate the region with low MYH11 expression. […] Red arrows indicate the region with high SM22α expression. Yellow arrows indicate the region with low SM22α expression. […] The “% of high expression”=ratio of “area of high expression”! “total area of intima and media”. Data are represented as mean±SD. […] Scale bar=100 μm. Neointima is highlighted.
Rat carotid artery balloon injury model and periadventitial delivery—This animal study was conducted with approval from the UW-Madison Department of Surgery Animal Care and Use Committee. Briefly, 2 mg (2 animals/group) or 10 mg (3 animals/group) of RepSox (or DMSO) dissolved in Regel (Tri-block gel) (Regel tri-block gel is described in Chen et al. “Unimolecular Micelle-Based Hybrid System for Perivascular Drug Delivery Produces Long-Term Efficacy for Neointima Attenuation in Rats,” Biomacromolecules, 2017 Jun. 14. doi: 10.1021/acs.biomac.7b00617) was applied to the outside of the injured artery segment immediately after balloon injury of the rat carotid artery. Two weeks post-surgery, arteries were collected and sectioned. The ratio of intima area versus media area and lumen area were measured by Image J.
We next examined the function of RepSox in a rat intimal hyperplasia model. In order to reduce any side effect induced by systematic drug delivery, RepSox or DMSO was dissolved in gel and then applied to the outside of the injured artery segment immediately after balloon injury of the rat carotid artery (Shi et al., 2014). Carotid arteries were collected and sectioned 14 days after surgery. […] To test the effect of RepSox, we performed qPCR analysis.

NOTCH1 = system: NOTCH1
Experimental: Data are represented as mean±SD, n=3 biological replicates. *, p<0.05, student t-test. […] Cells were treated with RepSox (25 μM) or SiRNA. Comb3: Knockdown of TGFBR1, ACVR1B, and ACVR1C at the same time. Data are represented as mean±SD, n=2 biological replicates. *, p<0.05, student t-test. […] Cells were treated with RepSox (25 μM) or SiRNA. Data are represented as mean±SD, n=2 biological replicates. *, p<0.05, student t-test. […] During the smooth muscle cells differentiation, cells were treated with or without RepSox from day 10-11. […] During the smooth muscle cells differentiation, cells were treated with RepSox for 1 or 20 hours at day 12. […] Data are represented as mean±SD, n=3 biological replicates. *, p<0.05, student t-test. […] Cells were treated with RepSox and non-targeting control (NT)/SiRNA at day 10. The RNA was isolated at day 14.

[1] = system: contractile and ECM genes (MYH11, SMTN, CNN1, ELN, ACTA2, TAGLN, COL1A1); assay: RT-qPCR of pluripotent stem cell-derived SMCs; type: cell-based, human; conditions: versus previous protocol (Cheung's LM-SMCs)
From the text: as §1
FIGS. 9A-9B show a comparison of MYH11 expression in RepSox-SMCs and Cheung's LM-SMCs. […] Data are normalized to Cheung's LM-SMCs and represented as mean±SD, n=3 for all the samples except fresh human artery (n=2). *, p<0.05, student t-test.
Optimized smooth muscle cell differentiation—Human pluripotent stem cell cells (H1) were cultured in E8 medium on a […]™-coated plate. To achieve the best differentiation results, ES cells were split using EDTA at 1:4 ratios two days before the differentiation. The cells reached 80-90% confluency two days later. At the day of the differentiation, ES cells were dissociated by ACCUTASE™ (Invitrogen) for 3-5 min at 37 ° C. The cells were plated on a […]™-coated plate at 1:4 ratios (1×10^5 cells/cm2). […] An increased CHIR99021 concentration of 3 μM decreased cell proliferation at 36 hours but increased MYH11 expression. At 36 hours, the cells were passaged and seeded on a new […]™-coated plate (1.6×10^4 cells/cm2). The low cell density is critical for the differentiation. A cell density of 1.0-4.0×10^4 cells/cm2 for different cell lines can be tested, such that 100% cell confluence will be achieved at day 6, which gives rise to the best differentiation efficiency. […]

With `Cc1cccc(-c2n[nH]cc2-c2ccc3ncccc3n2)n1` [RepSox, RepSox (SJN 2511)] the “efficiency of SMC differentiation (MYH11-tdTomato+)” value (MYH11-Tom+ cells) was > 95%, the intima/media ratio (intimal hyperplasia; 2 mg or 10 mg RepSox in gel periadventitially, 14 days after surgery, DMSO control 1.5) was 0.5 and the “endothelia cell marker expression (qPCR)” value (intimal hyperplasia; injured rat carotid artery, versus DMSO) was “increased”. The “apoptosis in intima (TUNEL)” value (intimal hyperplasia; versus DMSO) was “increased”, the “expression of contractile proteins SMA, MYH11 and SM22α” value (intimal hyperplasia; versus DMSO) was “significantly increased” and the “proliferation in intima and media layer (immunostaining)” value (intimal hyperplasia; versus DMSO) was “decreased proliferation in intima but not media layer”. The “RepSox treatment time after which increased NOTCH signaling could be detected” value (NOTCH1; RepSox for 1 or 20 hours at day 12) was 1 h, the “full-length NOTCH1 and intracellular domain (NICD) expression” value (NOTCH1; treated with or without RepSox day 10-11) was “enhanced” and the “improvement of MYH11 expression (RT-qPCR)” value [1] was 23 fold.
